According to PubChem BioAssay AID2060892 (Molecular Pharmacology Branch, DTP, NCI, 2025):

Test system: HOP-62 complex spheroids with HUVEC/MSC, viability
Experiment: Anticancer human tumor HOP-62 cell line growth inhibition [RAS];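 further: spheroids exposed to agents for seven days before readout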;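 on viability, T/C: 100% = DMSO vehicle control viability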
Details: for IC50: curve of first compound; for viability, T/C: stronger effect = lower value
From the text: RAS pathway inhibitors in Combinations in Complex Spheroids
A high-throughput screen of multi-cell type tumor spheroids was designed to identify active combinations of RAS pathway inhibitors and targeted small molecules. Complex spheroids include a stromal component modeled by human endothelial cells (HUVEC) and fibroblasts modeled by human mesenchymal stem cells (MSCs). The concentration ranges selected for each drug and investigational agent were based upon clinically achievable concentrations if the clinical Cmax of the agent was known.
Compounds. The drugs and investigational agents: abemaciclib (NSC768073), cobimetinib (NSC768068), divarasib (GDC6063, NSC841802), docetaxel (NSC628503), GDC-1971 (RLY-1971, NSC841576), gemcitabine (NSC613327), inavolisib (NSC800729), ipatasertib (NSC767898), KB-0742 (NSC834161), MRTX-1133 (NSC836407), osimertinib (NSC779217), RMC-4630 (NSC839698), RMC-6236 (NSC851965), RMC-6291 (NSC852671), Ro-3306 (NSC812927), sapanisertib (NSC764658), SN-38 (NSC673596), staurosporine (NSC755774), SY5609 (NSC837396), and tovorafenib (DAY101, NSC766906), were obtained from the National Cancer Institute (NCI) Developmental Therapeutics Program Chemical Repository. The FDA-approved anticancer drug set is available from the NCI Developmental Therapeutics Program. […] The stock solutions were prepared in dimethyl sulfoxide (DMSO, Sigma-Aldrich, St. Louis, MO, cat. D2650) at 800-fold the tested concentration and stored at -70 degrees C prior to their use. All drugs and investigational agents were tested over a range starting from a high concentration at or near the clinical Cmax and decreasing in half-log increments. If the clinical Cmax for an agent had not been determined, the highest concentration tested was 10 microM.
Cell Culture. All cells were maintained in an incubator at 37 degrees C and 5% CO2 with 95% humidity. The PDC lines were cultured according to standard operating procedures established by the NCI PDMR. All PDCs were thawed and cultured in Matrigel-coated flasks prepared with a working solution of 1X Ham's F-12 nutrient mix, without supplementation (Invitrogen, Waltham, MA, cat. 11765054), 100 U/mL penicillin-streptomycin (Invitrogen, cat. 15140122), and 2.5% Matrigel (Corning Inc., Corning, NY, cat. 354248) for the first three passages. The 362531-283-R-J2-PDC and 782815-120-R-J1-PDC lines were cultured in 6C/Colon 1B media, which includes advanced DMEM/F-12 (Thermo Fisher Scientific, cat. 12634028), 10 mM HEPES (Thermo Fisher Scientific, cat. 15630080), 1X GlutaMAX supplement (Thermo Fisher Scientific, cat. 35050061), 0.1 mg/mL primocin (InvivoGen, San Diego, CA, cat. ant-pm-2), 10% defined fetal bovine serum, heat inactivated (HyClone Laboratories Inc., Logan, UT, cat. SH30070.03HI), 50% L-WRN conditioned media (ATCC, cat. CRL-3276), 1.25 mM N-Acetyl-L-cysteine (Sigma-Aldrich, cat. A9165), 10 mM nicotinamide (Sigma-Aldrich, cat. N0636), 1X B-27 supplement (Thermo Fisher Scientific, cat. 17504044), 1X N-2 supplement (Thermo Fisher Scientific, cat. 17502048), 50 ng/mL human EGF (Thermo Fisher Scientific, cat. PHG0311), and 10 microM Y-27632 dihydrochloride (Tocris Bioscience, cat. 1254). The K12877-001-R-J1-PDC line was cultured in 6I media, which includes all 6C/Colon 1B media plus 10 ng/mL human FGF-10 (PeproTech, cat. 100-26), 1 ng/mL human FGF-2 (PeproTech, cat. 100-18B), 1 µM prostaglandin E2 (Tocris Bioscience, cat. 2296), […] hydrocortisone (Sigma-Aldrich, cat. H4001), and […] bovine insulin (Sigma-Aldrich, cat. I6634). The K86415-001-R-J1-PDC line was cultured in 6D media, which includes all 6C/Colon 1B media components minus the L-WRN conditioned media. The 485176-168-R4-J1-PDC was cultured in PANC media, which includes all 6C/Colon 1B media plus 100 ng/mL human FGF-10 (PeproTech, cat. 100-26), 500 nM SB-431542 (Selleckchem, cat. S1067), and 10 nM gastrin (Tocris Bioscience, cat. 3006). […]

Structure (SMILES): CC(Nc1ccc2c(c1)OCCn1cc(N3C(=O)OCC3C(F)F)nc1-2)C(N)=O (configuration not stated) + C=CC(=O)N1CCN(c2nc(OCC3CCCN3C)nc3c(F)c(-c4nc(N)cc(C)c4C(F)(F)F)c(Cl)cc23)C(C)C1
- IC50 (second compound 0.00316 µM): 140 nM
- IC50 (second compound 0.01 µM): 63.4 nM
- IC50 (second compound 0.0316 µM): < 31.6 nM
- IC50 (second compound 0.1 µM): 34.6 nM
- IC50 (second compound 0.316 µM): < 31.6 nM
- IC50 (second compound 1 µM): < 31.6 nM
- viability, T/C (second compound 0.00316 µM, first compound 0.0316 µM): 57.6%
- viability, T/C (second compound 0.00316 µM, first compound 0.1 µM): 53.6%
- viability, T/C (second compound 0.00316 µM, first compound 0.316 µM): 44.2%
- viability, T/C (second compound 0.00316 µM, first compound 1 µM): 35.5%
- viability, T/C (second compound 0.00316 µM, first compound 3.16 µM): 30.9%
- viability, T/C (second compound 0.00316 µM, first compound 10 µM): 19.6%
- viability, T/C (second compound 0.01 µM, first compound 0.0316 µM): 56.5%
- viability, T/C (second compound 0.01 µM, first compound 0.1 µM): 44.6%
- viability, T/C (second compound 0.01 µM, first compound 0.316 µM): 37.8%
- viability, T/C (second compound 0.01 µM, first compound 1 µM): 32.7%
- viability, T/C (second compound 0.01 µM, first compound 3.16 µM): 27.7%
- viability, T/C (second compound 0.01 µM, first compound 10 µM): 18.9%
- viability, T/C (second compound 0.0316 µM, first compound 0.0316 µM): 47.5%
- viability, T/C (second compound 0.0316 µM, first compound 0.1 µM): 40.9%
- viability, T/C (second compound 0.0316 µM, first compound 0.316 µM): 36.1%
- viability, T/C (second compound 0.0316 µM, first compound 1 µM): 30.2%
- viability, T/C (second compound 0.0316 µM, first compound 3.16 µM): 24.5%
- viability, T/C (second compound 0.0316 µM, first compound 10 µM): 16.5%
- viability, T/C (second compound 0.1 µM, first compound 0.0316 µM): 52%
- viability, T/C (second compound 0.1 µM, first compound 0.1 µM): 42%
- viability, T/C (second compound 0.1 µM, first compound 0.316 µM): 39.2%
- viability, T/C (second compound 0.1 µM, first compound 1 µM): 32.5%
- viability, T/C (second compound 0.1 µM, first compound 3.16 µM): 24%
- viability, T/C (second compound 0.1 µM, first compound 10 µM): 15.7%
- viability, T/C (second compound 0.316 µM, first compound 0.0316 µM): 47.4%
- viability, T/C (second compound 0.316 µM, first compound 0.1 µM): 37.4%
- viability, T/C (second compound 0.316 µM, first compound 0.316 µM): 32.9%
- viability, T/C (second compound 0.316 µM, first compound 1 µM): 30.6%
- viability, T/C (second compound 0.316 µM, first compound 3.16 µM): 20.5%
- viability, T/C (second compound 0.316 µM, first compound 10 µM): 16.8%
- viability, T/C (second compound 1 µM, first compound 0.0316 µM): 43.6%
- viability, T/C (second compound 1 µM, first compound 0.1 µM): 40.8%
- viability, T/C (second compound 1 µM, first compound 0.316 µM): 32.2%
- viability, T/C (second compound 1 µM, first compound 1 µM): 29.6%
- viability, T/C (second compound 1 µM, first compound 3.16 µM): 24.3%
- viability, T/C (second compound 1 µM, first compound 10 µM): 13%
